# Laboratory results as given in ChEMBL document CHEMBL6177945, “Dyad System of BOAHY-BODIPY Conjugates as Novel Photoswitchable Photosensitizers for Photodynamic Therapy” (J Med Chem, 2025).
# The source made the active and inactive calls. No cut-off for these calls is given here.
# Legend:
# [1] = system: HeLa; experiment: Cytotoxicity against human HeLa cells up to 100 uM incubated for 4 hrs by MTT assay; type: toxicity, cell-based
# [2] = system: HeLa; experiment: Photocytotoxicity against human HeLa cells at 10 uM incubated with compound for 30 mins under 365 nm UV light for 5 mins followed white LED exposure for 10 mins and measured after 20 hrs post-illumination by MTT assay; type: functional, cell-based; settings: time 20.75 hrs
# [3] = Induction of type-1 ROS generation in PBS assessed as increase in superoxide anion radical by measuring increase in DHR123 fluorescence intensity at 10 uM irradiated with 450 to 800 nm 40.8 mW cm^-2 light up to 10 mins by DHR123 fluorescence based analysis; type: functional
# [4] = Induction of type-II ROS generation in PBS assessed as increase in singlet oxygen by measuring ABDA absorption at 20 uM irradiated with 450 to 800 nm 40.8 mW cm^-2 light up to 10 mins by ABDA based UV-vis absorption spectrophotometric analysis; type: functional
# [5] = Phototoxicity in human HeLa cells assessed as cell viability under white LED light for 10 mins; type: functional, cell-based; settings: light or radiation study
# [6] = system: HeLa; experiment: Photocytotoxicity against human HeLa cells at 10 uM incubated with compound for 30 mins under 365 nm UV light for 1 mins and measured after 20 hrs post-illumination by MTT assay; type: functional, cell-based; settings: time 20.51 hrs
# [7] = system: HeLa; experiment: Photocytotoxicity in human HeLa cells at 10 uM incubated for 30 mins irradiated with 450 to 800 nm 40.8 mW cm^-2 white LED light and measured after 20 hrs by MTT assay; type: functional, cell-based; settings: time 20.5 hrs
# [8] = Induction of type-1 ROS generation in PBS assessed as increase in superoxide anion radical by measuring increase in DHR123 fluorescence intensity under white lamp exposure for 10 mins and UV light for 15 mins followed by white lamp exposure for another 10 mins by DHR123 fluorescence based analysis; type: functional; settings: time 35.0 min
# [9] = Induction of type-II ROS generation in PBS assessed as increase in singlet oxygen by measuring ABDA absorption under white lamp exposure for 10 mins and UV light for 15 mins followed by white lamp exposure for another 10 mins by ABDA based UV-vis absorption spectrophotometric analysis; type: functional; settings: time 35.0 min
# [10] = system: HeLa; experiment: Photocytotoxicity against human HeLa cells at 10 uM incubated with compound for 30 mins under 365 nm UV light for 1 mins followed white LED exposure for 2 mins and measured after 20 hrs post-illumination by MTT assay; type: functional, cell-based; settings: time 20.55 hrs
# [11] = system: HeLa; experiment: Upregulation of ROS generation related proteins in human HeLa cells under white light irradiation exposure by GO analysis; type: functional, cell-based
# [12] = system: HeLa; experiment: Upregulation of cellular redox metabolism related proteins in human HeLa cells under white light irradiation exposure by GO analysis; type: functional, cell-based
Structure (SMILES),Activity [1],Activity [2],Activity [3],Activity [4],other results
COc1ccc(C2=N/[N+](=C\C3=C(C)C4=C(c5ccccc5)c5c(C)c(/C=[N+]6\N=C(c7ccc(OC)cc7)O[B-]6(F)F)c(C)n5[B-](F)(F)[N+]4=C3C)[B-](F)(F)O2)cc1,Non-toxic,Active,–,–,–
CC1=C(I)C(C)=[N+]2C1=C(c1ccccc1)c1c(C)c(/C=[N+]3\N=C(c4ccccc4)O[B-]3(F)F)c(C)n1[B-]2(F)F,–,–,Active,Active,IC50 [5]: 3.38 µM; Activity [6]: Active
COc1ccc(C2=N/[N+](=C\c3c(C)c4n(c3C)[B-](F)(F)[N+]3=C(C)C=C(C)C3=C4c3ccccc3)[B-](F)(F)O2)cc1,Non-toxic,–,Active,Not active; Slight Changes In Abda Absorption Observed,Activity [7]: Active
CC1=CC(C)=[N+]2C1=C(c1ccccc1)c1c(C)c(/C=[N+]3\N=C(c4ccccc4)O[B-]3(F)F)c(C)n1[B-]2(F)F,Non-toxic,–,Active,Not active; Slight Changes In Abda Absorption Observed,Activity [7]: Active
CC1=CC(C)=[N+]2C1=C(c1ccccc1)c1c(C)c(/C=[N+]3\N=C(c4ccc([N+](=O)[O-])cc4)O[B-]3(F)F)c(C)n1[B-]2(F)F,Non-toxic,–,Active,Not active; Slight Changes In Abda Absorption Observed,–
CC1=C(/C=[N+]2\N=C(c3ccccc3)O[B-]2(F)F)C(C)=[N+]2C1=C(c1ccccc1)c1c(C)c(/C=[N+]3\N=C(c4ccccc4)O[B-]3(F)F)c(C)n1[B-]2(F)F,Non-toxic,Active,Active,–,–
CC1=CC(C)=[N+]2C1=C(c1ccccc1)c1c(C)c(/C=[N+]3/N=C(c4ccc([N+](=O)[O-])cc4)O[B-]3(F)F)c(C)n1[B-]2(F)F,–,Active,–,–,–
COc1ccc(C2=N/[N+](=C/c3c(C)c4n(c3C)[B-](F)(F)[N+]3=C(C)C=C(C)C3=C4c3ccccc3)[B-](F)(F)O2)cc1,–,Active,–,–,Activity [8]: Active; Activity [9]: Active
COc1ccc(C2=N/[N+](=C\c3c(C)c4n(c3C)[B-](F)(F)[N+]3=C(C)C(I)=C(C)C3=C4c3ccccc3)[B-](F)(F)O2)cc1,–,–,Active,–,Activity [10]: Active; Activity [11]: Active; Activity [12]: Active
CC1=C(I)C(C)=[N+]2C1=C(c1ccccc1)c1c(C)c(/C=[N+]3\N=C(c4ccc([N+](=O)[O-])cc4)O[B-]3(F)F)c(C)n1[B-]2(F)F,–,–,Active,–,–
CC1=CC(C)=[N+]2C1=C(c1ccccc1)c1c(C)c(/C=[N+]3/N=C(c4ccccc4)O[B-]3(F)F)c(C)n1[B-]2(F)F,–,Active,–,–,Activity [8]: Active; Activity [9]: Active
